Source: patent US7176195B2, “Fused azepine derivatives and their use as antidiuretic agents” (Ferring BV, priority 2000, dated 2007)

What was measured:
V2 receptor = V2 receptor (Homo sapiens, UniProt P30518); experiment: Determination of V2 receptor agonist activity in vitro (cellular activation); format: cell-based; settings: concentration of compound necessary to cause a half-maximal cellular activation
Description: Determination of V2r Ceptor Agonist Activity in Vitro
Agonist activity was determined for all compounds and is reported as an EC50 value, being that concentration of compound necessary to cause a half-maximal cellular activation.

Brattleboro rat = experiment: Determination of antidiuretic activity in vivo (urine output, Brattleboro rat); settings: Brattleboro rats, 1 mg/kg p.o. in methylcellulose, vs control animals
Description: Determination of Antidiuretic Activity in Vivo
The Brattleboro rat is a recognised model for vasopressin deficiency (for a review see FD Grant, “Genetic models of vasopressin deficiency”, Exp. Physiol. 85, 203S–209S, 2000). […] Compounds of the invention were administered to Brattleboro rats (0.1–10 mg/kg p.o. in methylcellulose. Urine was callected hourly and volumes were compared with control animals. Animals had free access to food and water throughout the experiment. Representative results are given in Table S. Results for Desmopressin are given for comparison.

Chain of V2 receptor (P30518 whole entry): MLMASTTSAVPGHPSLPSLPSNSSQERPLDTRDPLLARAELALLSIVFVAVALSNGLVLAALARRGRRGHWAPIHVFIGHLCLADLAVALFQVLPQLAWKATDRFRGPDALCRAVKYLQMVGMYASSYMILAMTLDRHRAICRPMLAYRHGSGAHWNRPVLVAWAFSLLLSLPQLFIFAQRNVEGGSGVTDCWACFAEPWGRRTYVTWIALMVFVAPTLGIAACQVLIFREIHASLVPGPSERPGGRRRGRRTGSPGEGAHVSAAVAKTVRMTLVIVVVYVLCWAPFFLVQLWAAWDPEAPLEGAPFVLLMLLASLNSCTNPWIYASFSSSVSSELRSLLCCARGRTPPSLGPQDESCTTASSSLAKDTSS

| Structure (SMILES) | EC50 (V2 receptor) [µM] | % inhibition of urine output (at 1 hour) (Brattleboro rat) |
| --- | --- | --- |
| N#C/N=C(\NCc1ccc(C(=O)N2CCCCc3ccccc32)cc1)Nc1c(F)cccc1F [Example 2, 1-(4-[3-(2,6-Difluorophenyl)cyanoguanidinomethyl]benzoyl)-2,3,4,5-tetrahydro-1H-1-benzazepine] | 0.16 | – |
| COc1cccc(NC(=O)NCc2ccc(C(=O)N3CCCCc4ccccc43)cc2Cl)c1 [Example 4, 1-(3-Chloro-4-[3-(3-methoxyphenyl)ureidomethyl]benzoyl)-2,3,4,5-tetrahydro-1H-1-benzazepine] | 0.3 | – |
| O=C(NCc1ccc(C(=O)N2CCCCc3ccccc32)cc1Cl)Nc1ccccc1Cl [Example 5, 1-(3-Chloro-4-[3-(2-chloropheny)ureidomethyl]benzoyl)-2,3,4,5-tetrahydro-1H-1-benzazepine] | 0.15 | – |
| Cc1cc(C(=O)N2CCCCc3ccccc32)ccc1CNC(=O)NS(=O)(=O)c1ccccc1 [Example 8, 1-(3-Methyl-4-[3-(phenylsulfonyl)ureidomethyl]benzoyl)-2,3,4,5-tetrahydro-1H-1-benzazepine] | 0.22 | – |
| Cc1cc(C(=O)N2CCCCc3ccccc32)ccc1CNC(=O)Nc1ccc[nH]c1=O [Example 9, 1-(3-Methyl-4-[3-(2-oxo-1,2-dihydropyrid-3-yl)ureidomethyl]benzoyl)-2,3,4,5-tetrahydro-1H-1-benzazepine] | 0.05 | – |
| O=C(c1ccc(CNS(=O)(=O)Cc2ccccc2[N+](=O)[O-])c([N+](=O)[O-])c1)N1CCCCc2ccccc21 [Example 11, 1-(3-Nitro-4-[2-nitrobenyzlsulfonylaminomethyl]benzoyl)-2,3,4,5-tetrahydro-1H-1-benzazepine] | 0.021 | – |
| Cc1cc(C(=O)N2CCCN(Cc3cccnc3)c3ccccc32)ccc1CNC(=O)Nc1c(F)cccc1F [Example 16, 1-(4-[3-(2,6-Difluorophenyl)ureidomethyl]-3-methylbenzoyl)-5-(3-pyridyl)methyl-2,3,4,5-tetrahydro-1H-1,5-benzodiazepine] | 0.016 | – |
| Cc1cc(C(=O)N2CCCN(CCO)c3ccccc32)ccc1CNC(=O)Nc1c(F)cccc1F [Example 17, 1-(4-[3-(2,6Difuorophenyl)ureidomethyl]-3-methylbenzoyl)-5-(2-hydroxyethyl)-2,3,4,5-tetrahydro-1H-1,5-benzodiazepine] | 0.016 | – |
| CN1CCCN(C(=O)c2ccc(CNC(=O)Nc3c(F)cccc3F)c(Cl)c2)c2ccccc21 [Example 18, 1-(3-Chloro-4-[3-(2,6-difluorophenyl)ureidomethyl]benzoyl)-5-methyl-2,3,4,5-tetrahydro-1H-1,5-benzodiazepine] | 0.017 | – |
| Cc1cc(C(=O)N2CCCCc3sccc32)ccc1CNC(=O)Nc1c(F)c(F)cc(F)c1F [Example 27, 4-(3-Methyl-4-[3-(2,3,5,6-tetrafluorophenyl)ureidomethyl]benzoyl)-5,6,7,8-tetrahydro-4H-thieno[3,2-b]azepine] | 0.023 | – |
| CCOC(=O)CNC(=O)NCc1ccc(C(=O)N2CCCCc3ccccc32)cc1C [Example 32, 1-(4-[N-(2-Ethoxy-2-oxoethylcarbamoyl)aminomethyl]-3-methylbenzoyl)-2,3,4,5-tetrahydro-1H-1-benzazepine] | – | 74% |
| Cc1cc(C(=O)N2CCCCc3ccccc32)ccc1CNC(=O)NCC(=O)O [Example 33, 1-(4-[N-(Carboxymethylcarbamoyl)aminomethyl]-3-methylbenzoyl)-2,3,4,5-tetrahydro-1H-1-benzazepine] | – | 38% |
| Cc1cc(C(=O)N2CCCCc3ccccc32)ccc1CNC(=O)NCC(=O)N(C)C [Example 35, 1-(4-[N-(2-Dimethylamino-2-oxoethylcarbamoyl)aminomethyl]-3-methylbenzoyl)-2,3,4,5-tetrahydro-1H-1-benzazepine] | – | 45–82% |
| Cc1cc(C(=O)N2CCCCc3ccccc32)ccc1CNC(=O)N1CCC[C@H]1C(=O)N(C)C [Example 39, 1-(2-Methyl-4-(2,3,4,5-tetrahydro-1-benzazepin-1-ylcarbonyl)benzylcarbamoyl)-L-proline-N,N-dimethylamide] | – | 82% |

Continued, in another order:

| EC50 (V2 receptor) [µM] | Structure (SMILES) | % inhibition of urine output (at 1 hour) (Brattleboro rat) |
| --- | --- | --- |
| 0.039 | O=C(NCc1ccc(C(=O)N2CCCCc3ccccc32)cc1)Nc1c(F)cccc1F [Example 1, 1-(4-[3-(2,6-Difluorophenyl)ureidomethyl]benzoyl)-2,3,4,5-tetrahydro-1H-1-benzazepine] | – |
| 0.3 | O=C(NCc1ccc(C(=O)N2CCCCc3ccccc32)cn1)Nc1c(F)cccc1F [Example 3, 1-(6-[3-(2,6-Difluorophenyl)ureidomethyl]nicotinoyl)-2,3,4,5-tetrahydro-1H-1-benzazepine] | – |
| 0.047 | O=C(c1ccc(CNC(=S)Nc2c(F)cccc2F)c(Cl)c1)N1CCCCc2ccccc21 [Example 6, 1-(3-Chloro-4-[3-(2,6-difluorophenyl)thioureidomethyl]benzoyl)-2,3,4,5-tetrahydro-1H-1-benzazepine] | – |
| 0.024 | Cc1cc(CNC(=O)Nc2c(F)cccc2F)ccc1C(=O)N1CCCCc2ccccc21 [Example 7, 1-(4-[3-(2,6-Difluorophenyl)ureidomethyl]-2-methylbenzoyl)-2,3,4,5-tetrahydro-1H-1-benzazepine] | – |
| 0.004 | Cc1cc(C(=O)N2CCCCc3ccccc32)ccc1CNC(=O)Nc1c(F)cccc1F [Example 10] | – |
| 0.05 | Nc1cc(C(=O)N2CCCCc3ccccc32)ccc1CNC(=O)Nc1c(F)cccc1F [Example 12, 1-(3-Amino-4-[3-(2,6 difluorophenyl)ureidomethyl]benzoyl)-2,3,4,5-tetrahydro-1H-1-benzazepine] | – |
| 0.038 | CN(C)c1cc(C(=O)N2CCCCc3ccccc32)ccc1CNC(=O)Nc1c(F)cccc1F [Example 13, 1-(4-[3-(2,6-Difluorophenyl)ureldomethyl]-3-dimethylaminobenzoyl)-2,3,4,5-tetrahydro-1H-1-benzazepine] | – |
| 0.24 | O=C(NCc1ccc(C(=O)N2CCCCc3ccccc32)c(F)c1)Nc1c(F)cccc1F [Example 14, 1-(4-[3-(2,6-Difluorophenyl)ureidomethyl]-2-fluorobenzoyl)-2,3,4,5-tetrahydro-1H-1-benzazepine] | – |
| 0.044 | Cc1cc(C(=O)N2CCCNc3ccccc32)ccc1CNC(=O)Nc1c(F)cccc1F [Example 15, 1-(4-[3-(2,6-Difluorophenyl)ureidomethyl]-3-methylbenzoyl)-2,3,4,5-tetrahydro-1H-1,5-bezazepine] | – |
| 0.04 | Cc1cc(CNC(=O)Nc2c(F)cccc2F)ccc1C(=O)N1CCCN(C)c2ccccc21 [Example 19, 1-(4-[3-(2,6-Difluorophenyl)uredomethyl]-2-methylbenzoyl)-5-methyl-2,3,4,5-tetrahydro-1H-1,5-benzodiazepine] | – |
| 0.017 | Cc1cc(C(=O)N2CCCCc3ccccc32)cc(C)c1CNC(=O)Nc1c(F)cccc1F [Example 20] | – |
| 0.18 | O=C(NCc1ccc(C(=O)N2CCCCc3ccccc32)c(Cl)n1)Nc1c(F)cccc1F [Example 21, 1-(2-Chloro-6-[3-(2,6-difluorophenyl)ureidomethyl]nicotinoyl)-2,3,4,5-tetrahydro-1H-1-benzazepine] | – |
| 1 | Cn1c(CNC(=O)Nc2c(F)cccc2F)ccc(C(=O)N2CCCCc3ccccc32)c1=O [Example 22, 1-(6-[3-(2,6-Difluorophenyl)ureidomethyl]-1-methyl-2-oxo-1,2-dihydropyridyl-3-carbonyl)-2,3,4,5-tetrahydro-1H-1-benzazepine] | – |
| 0.04 | CCN1CCCN(C(=O)c2ccc(CNC(=O)Nc3c(F)cccc3F)c(C)c2)c2ccccc21 [Example 23, 1-(4-[3-(2,6-Difluorophenyl)ureidomethyl]-3-methylbenzoyl)-5-ethyl-2,3,4,5-tetrahydro-1H-1,5-benzodiazepine] | – |
| 0.092 | Cc1cc(C(=O)N2CCCCc3cccnc32)ccc1CNC(=O)Nc1c(F)cccc1F [Example 24] | – |
| 0.28 | Cc1cc(C(=O)N2CCC[S+]([O-])c3ccccc32)ccc1CNC(=O)Nc1c(F)cccc1F (stereo not shown) [Example 25, 5-(4-[3-(2,6-Difluorophenyl)ureidomethyl]-3-methylbenzoyl)-1-oxo-1λ^4-2,3,4,5-tetrahydro-1,5-benzothiazepine] | – |
| 0.01 | Cc1cc(C(=O)N2CCCCc3sccc32)ccc1CNC(=O)Nc1c(F)cccc1F [Example 26, 4-(4-[3-(2,6-Difluorophenyl)ureidomethyl]-3-methylbenzoyl)-5,6,7,8-tetrahydro-4H-thieno[3,2-b]azepine] | – |
